Source: patent US20230270113A1, “FUNGICIDAL MIXTURES” (Adama Makhteshim Ltd., priority 2020, published 2023)
Like-named read-outs stand apart in the source and are kept apart here.

How the values were obtained:
Format in all cases: in vivo
Phytophthora infestans = details: tomato
Alternaria solani [1] = experiment: Example 6b: greenhouse control of Alternaria solani in potato plants
Plasmopara viticola = experiment: Example 7: greenhouse control of Plasmopara viticola in grape plants, folpet with partners
Botrytis cinerea = experiment: Example 11: greenhouse control of Botrytis cinerea in strawberry
[2] = tested on: Zymoseptoria tritici Tri-R6 strain; details: for effect of FOLPET on the efficacy of the systemic product, treated area / effect of FOLPET on the efficacy of the systemic product, untreated area / effect of FOLPET on the efficacy of the systemic product, treated and untreated areas: with FOLPET vs use alone; for effect of FOLPET on the efficacy of the systemic product, treated and untreated areas: 21 and 28 days
Venturia inaequalis [3] = experiment: Example 2: greenhouse control of apple scab, phthalimides with cyprodinil and/or fluxapyroxad; details: Table 6; captan or folpet 1200, cyprodinil 300, fluxapyroxad 90 gAI/ha; one spray 1 day before inoculation
Venturia inaequalis [4] = experiment: Example A: greenhouse control of apple scab, phthalimides with DMI and/or fluopyram; details: for % control observed on leaves 26 DAYS after the application / % control observed on leaves 19 DAYS after the application: captan or folpet 1200, difenoconazole 75, tebuconazole 150, fluopyram 150 gAI/ha; for Var % (19/26 DAYS): change of % control from 19 to 26 days
Sphaerotheca fuliginea = experiment: Example 10: greenhouse control of Sphaerotheca fuliginea on melon plants
Venturia inaequalis [5] = experiment: Example 1b: greenhouse control of apple scab, reduced rates of phthalimides and difenoconazole; details: for % control observed on leaves 26 DAYS after the application / % control observed on leaves 19 DAYS after the application: captan or folpet 900, difenoconazole 35, tebuconazole 150, fluopyram 150 gAI/ha; for Var % (19/26 DAYS): change of % control from 19 to 26 days
Erysiphe necator = experiment: Example 9: greenhouse control of Erysiphe necator in grape plants
Experimental: • An experiment was conducted in controlled conditions under a greenhouse to evaluate the fungicidal activity of the mixture comprising (1) phthalimide fungicide (folpet, captan) and (2) demethylation inhibitor fungicide (difenoconazole) or a quinone outside inhibitors (azoxystrobin, pyraclostrobin), toward Erysiphe necator in grape plants, variety Barbera. In addition, the activity of phthalimide with two fungicides (A); demethylation inhibitor fungicide (difenoconazole) or a quinone outside inhibitors (azoxystrobin, pyraclostrobin and dehydrogenase inhibitor fungicide (fluxapyroxad) was also tested. • The experiment was conducted by applying compositions of fluxapyroxad, difenoconazole (Score® 10 WG), azoxystrobin (Ortiva®), pyraclostrobin (Cabrio® EC) and folpet (Folpan 80 WDG®) alone or together. The compositions were diluted with water. Water amount used was equivalent to 800 L/ha. Application was performed in an automatic spraying cabin equipped with 2 flatfan AI11003VS nozzles. • Treatments: • Folpet 1000 gr (A.I.)/ha • Fluxapyroxad 45 gr (A.I.)/ha • Difenoconazole 37.5 gr (A.I.)/ha • Difenoconazole 37.5 gr (A.I.)/ha+folpet 1000 gr (A.I.)/ha • Azoxystrobin 90 gr (A.I.)/ha • Azoxystrobin 90 gr (A.I.)/ha+folpet 1000 gr (A.I.)/ha • Pyraclostrobin 75 gr (A.I.)/ha • Pyraclostrobin 75 gr (A.I.)/ha+folpet 1000 gr (A.I.)/ha • Fluxapyroxad 45 gr (A.I.)/ha+Difenoconazole 37.5 gr (A.I.)/ha • Fluxapyroxad 45 gr (A.I.)/ha+Difenoconazole 37.5 gr (A.I.)/ha+folpet 1000 gr (A.I.)/ha • Azoxystrobin 90 gr (A.I.)/ha+Fluxapyroxad 45 gr (A.I.)/ha • Azoxystrobin 90 gr (A.I.)/ha+Fluxapyroxad 45 gr (A.I.)/ha+folpet 1000 gr (A.I.)/ha • Azoxystrobin 90 gr (A.I.)/ha+Difenoconazole 37.5 gr (A.I.)/ha • Azoxystrobin 90 gr (A.I.)/ha+Difenoconazole 37.5 gr (A.I.)/ha+folpet 1000 gr (A.I.)/ha • Pyraclostrobin 75 gr (A.I.)/ha+Fluxapyroxad 45 gr (A.I.)/ha • Pyraclostrobin 75 gr (A.I.)/ha+Fluxapyroxad 45 gr (A.I.)/ha+folpet 1000 gr (A.I.)/ha • Pyraclostrobin 75 gr (A.I.)/ha+Difenoconazole 37.5 gr (A.I.)/ha • Pyraclostrobin 75 gr (A.I.)/ha+Difenoconazole 37.5 gr (A.I.)/ha+folpet 1000 gr (A.I.)/ha • To test for fungicidal control of Erysiphe necator, the grape plants were sprayed with each of the above treatments. Each of the above treatments was applied from 4 to 10 times according to the disease development, applications occurring 7-14 days after the previous treatment. The treatments were composed of 4 replicates. • Evaluations were performed for the whole duration of the experiment. At each time the incidence and the severity of Erysiphe necator on plants parts was determined.

Alternaria solani [6] = experiment: Example 4: greenhouse control of Alternaria solani in tomato seedlings, phthalimides with DMI and/or fluxapyroxad; details: Table 9; captan or folpet 1200, difenoconazole 75, tebuconazole 150, fluxapyroxad 75 gAI/ha; one spray 1 day before inoculation
Alternaria solani [7] = experiment: Example 5: greenhouse control of Alternaria solani in tomato, phthalimides with azoxystrobin and/or fluxapyroxad
[8] = Table 2, one spray 1 day before inoculation, severity based
[9] = Table 4, one spray 1 day before inoculation

C#CCOc1ccc(CCNC(=O)C(OCC#C)c2ccc(Cl)cc2)cc1OC (stereo not drawn) [MANDIPROPAMIDE]
% control observed on leaves 14 DAYS after the application (Phytophthora infestans; rate 150 gr (A.I.)/ha): 65.7%
% control observed on leaves 21 DAYS after the application (Alternaria solani [1]; rate 150 gr (A.I.)/ha): 62.5%
% control observed on leaves 21 DAYS after the application (Plasmopara viticola; rate 112.5 gr (A.I.)/ha): 74.1%

Cc1cc(C2CC2)nc(Nc2ccccc2)n1 [CYPRODNIL]
% control observed on leaves 21 DAYS after the application (Botrytis cinerea; rate 150 gr (A.I.)/ha): 51.8%

CCCN(CCOc1c(Cl)cc(Cl)cc1Cl)C(=O)n1ccnc1 [PROCHLORAZ, prochloraz]
effect of FOLPET on the efficacy of the systemic product, treated area [2]: numerically appreciated but not significantly improved
effect of FOLPET on the efficacy of the systemic product, untreated area [2]: significant positive effect

Cc1cc(C2CC2)nc(Nc2ccccc2)n1 [CYPRODINIL, cyprodinil]
% control observed on leaves 26 DAYS after the application (Venturia inaequalis [3]): 62.7%

CC(C)CC(C)c1sccc1NC(=O)c1cn(C)nc1C(F)(F)F (stereo not drawn) [PENTHIOPYRAD, penthiopyrad]
effect of FOLPET on the efficacy of the systemic product, treated and untreated areas [2]: a significant effect was observed only for the 28-day timing

Cc1cc(C(F)(F)F)nn1CC(=O)N1CCC(c2nc(C3=NOC(c4c(F)cccc4F)C3)cs2)CC1 (stereo not drawn) [OXATHIAPIPROLIN]
% control observed on leaves 14 DAYS after the application (Phytophthora infestans; rate 15 gr (A.I.)/ha): 78.6%
% control observed on leaves 21 DAYS after the application (Alternaria solani [1]; rate 15 gr (A.I.)/ha): 63.6%
% control observed on leaves 21 DAYS after the application (Plasmopara viticola; rate 22.5 gr (A.I.)/ha): 86.7%

N#Cc1c[nH]cc1-c1cccc2c1OC(F)(F)O2 [FLUDIOXONIL]
% control observed on leaves 21 DAYS after the application (Botrytis cinerea; rate 150 gr (A.I.)/ha): 40.8%

CC1COC(Cn2cncn2)(c2ccc(Oc3ccc(Cl)cc3)cc2Cl)O1 (stereo not drawn) [DIFENOCONAZOLE, difenoconazole]
% control observed on leaves 26 DAYS after the application (Venturia inaequalis [4]; [8]): 71.8%
% control observed on leaves 19 DAYS after the application (Venturia inaequalis [4]; Table 3): 77.9%
% control observed on leaves 26 DAYS after the application (Venturia inaequalis [4]; Table 3): 71.8%
Var % (19/26 DAYS) (Venturia inaequalis [4]; Table 3): −7.8%
% control observed on leaves 21 DAYS after the application (Sphaerotheca fuliginea; rate 50 gr (A.I.)/ha): 49.4%
% control observed on leaves 26 DAYS after the application (Venturia inaequalis [5]; [9]): 73.1%
% control observed on leaves 19 DAYS after the application (Venturia inaequalis [5]; Table 5): 79.5%
% control observed on leaves 26 DAYS after the application (Venturia inaequalis [5]; Table 5): 73.1%
Var % (19/26 DAYS) (Venturia inaequalis [5]; Table 5): −8.1%
% control observed on leaves 21 DAYS after the application (Erysiphe necator; rate 37.5 gr (A.I.)/ha): 68.9%
% control observed on leaves 20 DAYS after the application (Alternaria solani [6]): 60.6%

COC(=O)N(OC)c1ccccc1COc1ccn(-c2ccc(Cl)cc2)n1 [PYRACLOSTROBIN]
% control observed on leaves 21 DAYS after the application (Botrytis cinerea; rate 75 gr (A.I.)/ha): 66.7%
% control observed on leaves 21 DAYS after the application (Sphaerotheca fuliginea; rate 100 gr (A.I.)/ha): 60.1%
% control observed on leaves 21 DAYS after the application (Erysiphe necator; rate 75 gr (A.I.)/ha): 70.7%

CO/C=C(/C(=O)OC)c1ccccc1Oc1cc(Oc2ccccc2C#N)ncn1 [AZOXYSTROBIN, azoxystrobin]
% control observed on leaves 21 DAYS after the application (Sphaerotheca fuliginea; rate 250 gr (A.I.)/ha): 51.0%
% control observed on leaves 20 DAYS after the application (Alternaria solani [7]; Table 10, captan or folpet 1200, azoxystrobin 120, fluxapyroxad 75 gAI/ha, one spray 1 day before inoculation): 51.4%
% control observed on leaves 14 DAYS after the application (Alternaria solani [7]; rate 120 gAI/ha, tomato): 71%
% control observed on leaves 20 DAYS after the application (Alternaria solani [7]; rate 120 gAI/ha, tomato): 51.4%
Var % (14/20 DAYS) (Alternaria solani [7]; rate 120 gAI/ha, tomato): −27.6%
% control observed on leaves 21 DAYS after the application (Erysiphe necator; rate 90 gr (A.I.)/ha): 65.9%

O=C(NCCc1ncc(C(F)(F)F)cc1Cl)c1ccccc1C(F)(F)F [FLUOPYRAM, fluopyram]
% control observed on leaves 26 DAYS after the application (Venturia inaequalis [4]; [8]): 75.3%
% control observed on leaves 19 DAYS after the application (Venturia inaequalis [4]; Table 3): 83.9%
% control observed on leaves 26 DAYS after the application (Venturia inaequalis [4]; Table 3): 75.3%
Var % (19/26 DAYS) (Venturia inaequalis [4]; Table 3): −10.3%
effect of FOLPET on the efficacy of the systemic product, treated area [2]: efficacy gains
effect of FOLPET on the efficacy of the systemic product, untreated area [2]: not statistically significant
% control observed on leaves 26 DAYS after the application (Venturia inaequalis [5]; [9]): 76.2%
% control observed on leaves 19 DAYS after the application (Venturia inaequalis [5]; Table 5): 85.1%
% control observed on leaves 26 DAYS after the application (Venturia inaequalis [5]; Table 5): 76.2%
Var % (19/26 DAYS) (Venturia inaequalis [5]; Table 5): −10.5%

O=[N+]([O-])c1cc(C(F)(F)F)c(Cl)c([N+](=O)[O-])c1Nc1ncc(C(F)(F)F)cc1Cl [FLUAZINAM]
% control observed on leaves 21 DAYS after the application (Botrytis cinerea; rate 500 gr (A.I.)/ha): 68.5%

O=C(NCc1ncc(C(F)(F)F)cc1Cl)c1c(Cl)cccc1Cl [FLUOPICOLIDE]
% control observed on leaves 21 DAYS after the application (Plasmopara viticola; rate 75.0 gr (A.I.)/ha): 74.5%

CC1(C(=O)Nc2ccc(O)c(Cl)c2Cl)CCCCC1 [FENHEXAMID]
% control observed on leaves 21 DAYS after the application (Botrytis cinerea; rate 500 gr (A.I.)/ha): 74.2%

CC(C)(C)C(O)(CCc1ccc(Cl)cc1)Cn1cncn1 (stereo not drawn) [TEBUCONAZOLE, tebuconazole]
% control observed on leaves 26 DAYS after the application (Venturia inaequalis [4]; [8]): 77.4%
% control observed on leaves 19 DAYS after the application (Venturia inaequalis [4]; Table 3): 82.5%
% control observed on leaves 26 DAYS after the application (Venturia inaequalis [4]; Table 3): 77.4%
Var % (19/26 DAYS) (Venturia inaequalis [4]; Table 3): −6.2%
% control observed on leaves 26 DAYS after the application (Venturia inaequalis [5]; [9]): 78.2%
% control observed on leaves 19 DAYS after the application (Venturia inaequalis [5]; Table 5): 83.8%
% control observed on leaves 26 DAYS after the application (Venturia inaequalis [5]; Table 5): 78.2%
Var % (19/26 DAYS) (Venturia inaequalis [5]; Table 5): −6.7%
% control observed on leaves 20 DAYS after the application (Alternaria solani [6]): 64.3%

CCNC(=O)NC(=O)/C(C#N)=N/OC [CYMOXANIL]
% control observed on leaves 14 DAYS after the application (Phytophthora infestans; rate 150 gr (A.I.)/ha): 68.5%
% control observed on leaves 21 DAYS after the application (Alternaria solani [1]; rate 150 gr (A.I.)/ha): 68.4%
% control observed on leaves 21 DAYS after the application (Plasmopara viticola; rate 126.0 gr (A.I.)/ha): 73.6%

Cc1cc(OC(C)C)ccc1C(=O)C(C)(C)NC(=O)c1sccc1C [ISOFETAMID]
% control observed on leaves 21 DAYS after the application (Botrytis cinerea; rate 400 gr (A.I.)/ha): 74.0%

CCC(C)(NC(=O)c1cc(Cl)c(C)c(Cl)c1)C(=O)CCl (stereo not drawn) [ZOXAMIDE]
% control observed on leaves 14 DAYS after the application (Phytophthora infestans; rate 180 gr (A.I.)/ha): 74.4%
% control observed on leaves 21 DAYS after the application (Alternaria solani [1]; rate 180 gr (A.I.)/ha): 62.9%
% control observed on leaves 21 DAYS after the application (Plasmopara viticola; rate 135.0 gr (A.I.)/ha): 74.7%

CCCCCCCCc1c(CC)nc2ncnn2c1N [AMETOCRADIN]
% control observed on leaves 14 DAYS after the application (Phytophthora infestans; rate 240 gr (A.I.)/ha): 68.0%
% control observed on leaves 21 DAYS after the application (Alternaria solani [1]; rate 240 gr (A.I.)/ha): 62.0%
% control observed on leaves 21 DAYS after the application (Plasmopara viticola; rate 225.0 gr (A.I.)/ha): 78.8%

Cn1cc(C(=O)Nc2ccc(F)cc2-c2ccc(Cl)c(Cl)c2)c(C(F)F)n1 [BIXAFEN, bixafen]
effect of FOLPET on the efficacy of the systemic product, treated and untreated areas [2]: greatly improved efficacy
protection of the untreated area by the formulation alone ([2]; without FOLPET): incapable of protecting the areas not treated
